# From patent publication US20240287048A1, “SUBSTITUTED ACYL SULFONAMIDES FOR TREATING CANCER” (The Broad Institute, Inc., priority 2020, published 2024)
# Legend:
# ZR-75-1 cells = assay: Proliferation assay in ZR-75-1 cells; format: cell-based; conditions: Homo sapiens, 144 h, Alamar Blue, read-out: ZR75-1 proliferation assay, EC50[M] (arithmetic mean)
# Text: (§1) For compound characterization cell survival assays were routinely run in two cell lines. ZR-75-1 is a breast carcinoma cell line containing a focal KAT6A amplification and high KAT6A protein expression. Proliferation of this cell line is inhibited upon treatment with KAT6A inhibitors. As a negative control cell line MDA-MB-436 were used. These cells carry a […] deletion of the KAT6A gene, have a low KAT6A protein expression and are not growth inhibited upon treatment with KAT6A inhibitors.
# (§2) For measurements cell lines were plated at the below indicated concentration per […] in 96-well plates in a humidified incubator at 37° C. and 5% CO2.
# (§3) ZR-75-1 (ATCC, CRL-1500; breast carcinoma); 3000 cells per well; culture medium: RPMI 1640 (Biochrom #FG 1215) medium containing 2.5% FBS (Biochrom #S0615). LCLC-97TM1 (DSMZ, ACC 388; large cell lung carcinoma); 6000 cells per well; culture medium: RPMI 1640 (Biochrom #FG 1215) medium containing 2.5% FBS (Biochrom #S0615). MDA-MB-436 (CLS, 300278; breast adenocarcinoma); 3000 cells per well; culture medium: DMEM/Ham's F12 (Biochrom #FG 4815) medium containing 2.5% FBS (Biochrom #S0615).
# (§4) Each sample was prepared as triplicate and rim wells were excluded. Plates were incubated at 37° C. and 5% CO2 for 144 h. Cell viability was measured by adding 10 μL of Alamar Blue Reagent (Invitrogen #DAL 1100) and plates were incubated for 2 h at 37° C. and 5% CO2. Fluorescence was measured at 590 nm wavelength with a Tecan Spark or Victor X3 MTP-Reader (PerkinElmer).
# KAT6A = target: T1, KAT6A (Homo sapiens, UniProt Q92794); assay: Kat6a activity assay (TR-FRET, acetylation of biotinylated histone H4 peptide); format: biochemical; conditions: recombinant human His-tagged Kat6a (amino acids 194-810), 60 mins at 22° C., read-out: KAT6A-DPF/HAT domain IC50 [mol/l] (arithmetic mean)
# T1 construct: Recombinant human His-tagged Kat6a protein (amino acids 194-810); His; made in house; host or cells: Baculovirus-infected Sf9 insect cells
# Text: Kat6a inhibitory activities of the compounds described in the present invention were quantified using a Fluorescence Resonance Energy Transfer (TR-FRET) assay which measures acetylation of a synthetic, biotinylated Histone-H4-derived peptide by the enzyme.
# Recombinant human His-tagged Kat6a protein (amino acids 194-810), was purified in-house from Baculovirus-infected insect cells (Sf9). Histone H4 peptide (amino acids 1-24, […]-VLRD-K(Btn)-amide), which was used as substrate, was synthesized by Biosyntan GmbH, Berlin, Germany. Acetyl Coenzyme A was purchased from Sigma-Aldrich (#A-2056).
# Kat6a was incubated for 60 mins at 22° C. in the presence of different concentrations of test substances (0 μM, and within the range 0.01-20 μM) in assay buffer [25 mM Tris/HCl pH 8, 1 mM EGTA, 2.5 mM Glutathion, 0.02% Chicken Albumin, 0.05% Pluronic F127, 25 mM NaCl, 220 nM H4 peptide and 600 nM Acetyl Coenzyme A].
# The reaction was stopped by addition of Detection Solution (25 mM HEPES pH 7.5, 0.1% BSA, 22 nM SAXL665 (Cisbio #610SAXLE), 100 μM Anacardic Acid (Enzo #ALX-270-381), 1 nM Anti-Histone H4 (ACETYL K8) Antibody (ABCAM #AB15823) and 0.5 nM Anti-Rabbit IgG Eu (Perkin Elmer #AD0083).
# The fluorescence emission at 620 nm and 665 nm after excitation at 330-350 nm was measured in a TR-FRET measuring instrument, for instance a Rubystar or a Pherastar (both from BMG Lab Technologies, Offenburg, Germany) or a Viewlux (Perkin-Elmer). The ratio of the emission at 665 nm and at […] was used as indicator of the amount of acetylated peptide.
# The resulting data (ratio) were normalized, taking 0% inhibition as the mean value of control measurements where all reagents were included. In this case 50 nl DMSO were used instead of compounds. […] IC50 values were determined by regression analysis based on a 4 parameter equation (minimum, maximum, ICM, Hill; Y=Max+(Min−Max)/(1+(X/ICso) Hill) using the Screener Software (Genedata).
# MDA-MB-436 cells = assay: Proliferation assay in MDA-MB-436 cells (negative control cell line); format: cell-based; conditions: Homo sapiens, 144 h, Alamar Blue, read-out: MDA-MB-436 proliferation assay, EC50[M] (arithmetic mean)
# Text: as §1, §2, §3, §4
# LCLC-97TM1 cells = assay: Proliferation assay in LCLC-97TM1 cells; format: cell-based; conditions: Homo sapiens, 144 h, Alamar Blue, read-out: LCLC97TM1 proliferation assay, EC50[M] (arithmetic mean)
# Experimental: as §2, §3, §4
# [1] = test system: ESR1 transcription in MVLN cells; assay: Repression of ESR1 transcription, MVLN luciferase reporter assay; format: cell-based; conditions: Homo sapiens, luciferase signal after 24 h, read-out: MVLN reporter assay, IC50[M] (arithmetic mean)
# Text: KAT6A controls transcription of the ESR1 gene in breast cancer cells. Compound treatment that interferes with this mechanism was quantified using MVLN cells. These cells constitutively express the ER and are stably transfected with the luciferase (LUC) reporter gene and the corresponding hormone responsive element derived from the 5′-flanking region of the Xenopus Vitellogenin A2 gene (Pons et al., 1990, Demirpense et al., 1993, Joyeux et al., 1993). The repressive effect on ERα transcription activity of a test chemical is directly related to the luciferase measured in the lysate of treated MVLN cells.
# Each sample was prepared as duplicate and rim wells were excluded. For luciferase signal determination 100 μl of a 1:1 mixture of Steadylite plus (Perkin Elmer; 6016759) and assay medium was added after 24 h for 15 minutes and measured in Victor X3 (Perkin Elmer). To exclude any effects caused by cell loss during the treatment, cell density was determined using Alamar Blue (Invitrogen; DAL1100). Prior to the luciferase measurement 10 μl Alamar Blue were added to each well and the plates were incubated for 2 h in the incubator. Then fluorescence was measured with Victor X3 (Perkin Elmer) at 530 nm/590 nm.
# T1 sequence (Q92794 194-810): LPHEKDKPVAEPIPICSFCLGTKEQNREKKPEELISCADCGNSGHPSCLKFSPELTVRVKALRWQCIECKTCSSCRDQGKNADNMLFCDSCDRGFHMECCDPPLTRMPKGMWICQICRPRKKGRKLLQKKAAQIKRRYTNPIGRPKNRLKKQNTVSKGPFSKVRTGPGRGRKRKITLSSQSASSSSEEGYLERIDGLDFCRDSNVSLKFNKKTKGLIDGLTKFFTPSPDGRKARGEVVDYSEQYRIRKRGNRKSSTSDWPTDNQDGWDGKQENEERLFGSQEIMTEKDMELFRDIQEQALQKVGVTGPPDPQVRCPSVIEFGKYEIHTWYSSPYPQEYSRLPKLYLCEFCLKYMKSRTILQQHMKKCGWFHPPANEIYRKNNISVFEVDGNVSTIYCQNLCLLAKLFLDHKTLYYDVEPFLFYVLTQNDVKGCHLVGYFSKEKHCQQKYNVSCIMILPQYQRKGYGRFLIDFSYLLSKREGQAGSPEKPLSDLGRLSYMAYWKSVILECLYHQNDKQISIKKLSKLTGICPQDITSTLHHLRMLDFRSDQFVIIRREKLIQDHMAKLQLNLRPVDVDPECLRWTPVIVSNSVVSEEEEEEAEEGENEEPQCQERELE
smiles,measurement,setting,value
"N#Cc1ccc2cc(C(=O)NS(=O)(=O)c3ccccc3-c3ccccc3)oc2c1 [Example 3, N-([1,1′-biphenyl]-2-sulfonyl)-6-cyano-1-benzofuran-2-carboxamide]",EC50,ZR-75-1 cells,> 2e-05 M
same,IC50,KAT6A,> 20 µM
same,EC50,MDA-MB-436 cells,> 2e-05 M
"O=C(NS(=O)(=O)c1ccccc1-c1ccccc1)c1cc2ccc(-c3cccnc3)cc2o1 [Example 4, N-([1,1′-biphenyl]-2-sulfonyl)-6-(pyridin-3-yl)-1-benzofuran-2-carboxamide]",EC50,ZR-75-1 cells,> 2e-05 M
same,EC50,LCLC-97TM1 cells,> 2e-05 M
same,IC50,KAT6A,15.2 µM
same,IC50,[1],1.98e-05 M
same,EC50,MDA-MB-436 cells,> 2e-05 M
"O=C(O)c1ccc2cc(C(=O)NS(=O)(=O)c3ccccc3-c3ccccc3)oc2c1 [Example 5, 2-[([1,1′-biphenyl]-2-sulfonyl)carbamoyl]-1-benzofuran-6-carboxylic acid]",EC50,ZR-75-1 cells,> 2e-05 M
same,IC50,KAT6A,5.75 µM
same,IC50,[1],> 2e-05 M
same,EC50,MDA-MB-436 cells,> 2e-05 M
"CN(C)C(=O)c1ccc2cc(C(=O)NS(=O)(=O)c3ccccc3-c3ccccc3)oc2c1 [Example 8, N^2-([1,1′-biphenyl]-2-sulfonyl)-N^6,N^6-dimethyl-1-benzofuran-2,6-dicarboxamide]",EC50,ZR-75-1 cells,> 2e-05 M
same,IC50,KAT6A,17.3 µM
same,IC50,[1],> 2e-05 M
same,EC50,MDA-MB-436 cells,> 2e-05 M
"Cc1ccc2c(C)c(C(=O)NS(=O)(=O)c3ccccc3-c3ccccc3)oc2c1 [Example 14, N-([1,1′-biphenyl]-2-sulfonyl)-3,6-dimethyl-1-benzofuran-2-carboxamide]",EC50,ZR-75-1 cells,8.7e-06 M
same,EC50,LCLC-97TM1 cells,9.97e-06 M
same,IC50,KAT6A,0.459 µM
same,IC50,[1],4.11e-06 M
same,EC50,MDA-MB-436 cells,> 2e-05 M
"O=C(NS(=O)(=O)c1ccccc1-c1ccccc1)c1cc2ccc(C3CC3)c(F)c2o1 [Example 15, N-([1,1′-biphenyl]-2-sulfonyl)-6-cyclopropyl-7-fluoro-1-benzofuran-2-carboxamide]",EC50,ZR-75-1 cells,8.42e-06 M
same,EC50,LCLC-97TM1 cells,> 2e-05 M
same,IC50,KAT6A,0.908 µM
same,IC50,[1],6.75e-06 M
same,EC50,MDA-MB-436 cells,> 2e-05 M
"CCOc1ccccc1S(=O)(=O)NC(=O)c1oc2cc(C)ccc2c1C [Example 18, N-(2-Ethoxybenzene-1-sulfonyl)-3,6-dimethyl-1-benzofuran-2-carboxamide]",EC50,ZR-75-1 cells,5.01e-06 M
same,EC50,LCLC-97TM1 cells,1.06e-05 M
same,IC50,KAT6A,0.827 µM
same,IC50,[1],5.56e-06 M
same,EC50,MDA-MB-436 cells,> 2e-05 M
"Cc1ccc2cccc(S(=O)(=O)NC(=O)c3cc4ccc(C(F)(F)F)cc4o3)c2n1 [Example 19, N-(2-Methylquinoline-8-sulfonyl)-6-(trifluoromethyl)-1-benzofuran-2-carboxamide]",EC50,ZR-75-1 cells,4.94e-06 M
same,EC50,LCLC-97TM1 cells,> 2e-05 M
same,IC50,KAT6A,0.729 µM
same,IC50,[1],3.63e-06 M
same,EC50,MDA-MB-436 cells,> 2e-05 M
"O=C(NS(=O)(=O)c1ccccc1-c1ccccc1)c1cc2ccc(-c3ccncc3)cc2o1 [Example 20, N-([1,1′-Biphenyl]-2-sulfonyl)-6-(pyridin-4-yl)-1-benzofuran-2-carboxamide]",EC50,ZR-75-1 cells,3.49e-06 M
same,IC50,KAT6A,> 20 µM
same,EC50,MDA-MB-436 cells,> 2e-05 M
"C=C(C)c1ccc2cc(C(=O)NS(=O)(=O)c3ccccc3-c3ccccc3)oc2c1 [Example 23, N-([1,1′-biphenyl]-2-sulfonyl)-6-(prop-1-en-2-yl)-1-benzofuran-2-carboxamide]",EC50,ZR-75-1 cells,1.15e-06 M
same,EC50,MDA-MB-436 cells,> 2e-05 M
"CCOc1ccc(C(C)CC)cc1S(=O)(=O)NC(=O)c1cc2c(F)cc(C3CC3)cc2o1 (stereo not drawn) [Example 29, 6-Cyclopropyl-N-(2-ethoxy-5-sec-butyl-phenyl)sulfonyl-4-fluoro-benzofuran-2-carboxamide]",EC50,ZR-75-1 cells,8.86e-08 M
same,EC50,LCLC-97TM1 cells,2.77e-07 M
same,IC50,KAT6A,0.00184 µM
same,IC50,[1],7.41e-08 M
same,EC50,MDA-MB-436 cells,> 2e-05 M
"O=C(NS(=O)(=O)c1ccc(Cl)cc1Cl)c1cc2c(F)cc(C3CC3)cc2o1 [Example 37, 6-Cyclopropyl-N-(2,4-dichlorophenyl)sulfonyl-4-fluoro-benzofuran-2-carboxamide]",EC50,ZR-75-1 cells,6.28e-06 M
same,EC50,LCLC-97TM1 cells,> 2e-05 M
same,IC50,KAT6A,0.078 µM
same,IC50,[1],1.06e-05 M
same,EC50,MDA-MB-436 cells,> 2e-05 M
"O=C(NS(=O)(=O)c1ccccc1-c1ccccc1)c1cc2c(F)cc(C3CC3)cc2o1 [Example 38, 6-Cyclopropyl-4-fluoro-N-(2-phenylphenyl)sulfonyl-benzofuran-2-carboxamide]",EC50,ZR-75-1 cells,9.57e-07 M
same,EC50,LCLC-97TM1 cells,3.21e-06 M
same,IC50,KAT6A,0.0173 µM
same,IC50,[1],1e-06 M
same,EC50,MDA-MB-436 cells,> 2e-05 M
"O=C(NS(=O)(=O)c1ccccc1)c1cc2c(F)cc(C3CC3)cc2o1 [Example 39, N-(Benzenesulfonyl)-6-cyclopropyl-4-fluoro-benzofuran-2-carboxamide]",EC50,ZR-75-1 cells,3.21e-06 M
same,EC50,LCLC-97TM1 cells,> 2e-05 M
same,IC50,KAT6A,0.0707 µM
same,IC50,[1],4.57e-06 M
same,EC50,MDA-MB-436 cells,> 2e-05 M
"CN(C)c1cc(C2CC2)cc2oc(C(=O)NS(=O)(=O)c3ccccc3)cc12 [Example 42, N-(Benzenesulfonyl)-6-cyclopropyl-4-(dimethylamino)benzofuran-2-carboxamide]",EC50,ZR-75-1 cells,> 2e-05 M
same,EC50,LCLC-97TM1 cells,> 2e-05 M
same,IC50,KAT6A,0.417 µM
same,IC50,[1],> 2e-05 M
same,EC50,MDA-MB-436 cells,> 2e-05 M
"CCOc1ccccc1S(=O)(=O)NC(=O)c1cc2c(C(F)(F)F)cc(C3CC3)cc2o1 [Example 51, 6-Cyclopropyl-N-(2-ethoxyphenyl)sulfonyl-4-(trifluoromethyl)benzofuran-2-carboxamide]",EC50,ZR-75-1 cells,9.14e-06 M
same,IC50,KAT6A,0.0256 µM
same,IC50,[1],2.98e-06 M
"O=C(NS(=O)(=O)c1ccccc1)c1cc2c(C(F)(F)F)cc(C3CC3)cc2o1 [Example 52, N-(Benzenesulfonyl)-6-cyclopropyl-4-(trifluoromethyl)benzofuran-2-carboxamide]",EC50,ZR-75-1 cells,7.32e-06 M
same,IC50,KAT6A,0.138 µM
same,IC50,[1],1.88e-05 M
"O=C(NS(=O)(=O)c1ccccc1-c1ccccc1)c1cc2c(C(F)(F)F)cc(C3CC3)cc2o1 [Example 53, 6-Cyclopropyl-N-(2-phenylphenyl)sulfonyl-4-(trifluoromethyl)benzofuran-2-carboxamide]",EC50,ZR-75-1 cells,> 2e-05 M
same,IC50,KAT6A,0.043 µM
same,IC50,[1],6.16e-06 M
"CC(C)c1ccc2cc(C(=O)NS(=O)(=O)c3ccc(Cl)cc3Cl)oc2c1 [Example 57, N-(2,4-Dichlorobenzenesulfonyl)-6-(propan-2-yl)-1-benzofuran-2-carboxamide]",EC50,ZR-75-1 cells,> 2e-05 M
same,IC50,[1],1.21e-05 M
same,EC50,MDA-MB-436 cells,> 2e-05 M
